Test results reported in patent US20240084258A1, “METHOD FOR PREPARING BROWN ADIPOCYTE” (KYOTO PREFECTURAL PUBLIC UNIVERSITY CORPORATION, priority 2015, published 2024).

How the values were obtained:
Type in all cases: cell-based
[1] = system: human dermal fibroblasts (HDFs); assay: UCP1 protein immunostaining, comparison of four inhibitors (Example 16); conditions: ALK5 inhibitor II 4 μM, LY2157299 8 μM; for UCP1 protein expression by immunostaining (induction into brown adipocytes): SB431542 4 μM, D4476 4 μM up to Day 9, day 14, FIG. 16A, 16B
Description: Thereafter, the cells were cultured in an adipocyte induction medium free of any compound of ALK5 inhibitor II, SB431542, LY215799 and D4476 during Day 9-Day 14. On day 14, the medium was removed by suction from each well, and the cells were washed with PBS(−).

[2] = system: human dermal fibroblasts (HDFs); assay: UCP1 gene mRNA, comparison of four inhibitors at 4-16 μM (Example 15); conditions: for induction efficiency into brown adipocytes (order): compound at 4, 8, 12 or 16 μM up to Day 9, UCP1 mRNA on day 14, FIG. 15; for UCP1 gene expression (conversion to brown adipocytes): compound at 4, 8, 12 or 16 μM up to Day 9, then without compound Day 9-14, FIG. 15
Description: (Day −1). In the control (Ctrl) group, the culture supernatant of the next day (Day 0) was removed by suction and the cells were cultured in a normal medium up to day 14 while substituting the medium with a fresh one once every other day. In groups other than the control (Ctrl) group, the culture supernatant was removed by suction on day 0, an adipocyte induction medium or an adipocyte induction medium added with any of ALK5 inhibitor II, SB431542, LY2157299 and D4476 at a concentration of 4 μM, 8 μM, 12 μM or 16 μM respectively was added at 1 mL/well.
Thereafter, the cells were cultured in an adipocyte induction medium free of any compound of ALK5 inhibitor II, SB431542, LY215799 and D4476 during Day 9-Day 14.

[3] = system: human dermal fibroblasts (HDFs); assay: UCP1 protein immunostaining, fluorescence intensity (Example 8); conditions: induction medium + T3 + Rosiglitazone, D4476, SB431541, ALK5 inhibitor II, FSK 2 μM, PD0325901 1 μM, day 14, FIG. 8A-C
Description: (§1) The next day, the culture supernatant was removed by suction and, as described in the Figure, a normal medium, an adipocyte induction medium, or an adipocyte induction medium added with each compound and the like was added at 500 μL/well. […] The concentrations of the additives are as follows: • T3: 1 nM • Rosiglitazone: 1 μM • […]: 2 μM • SB431541: 2 μM • ALK5 inhibitor II: 2 μM • PD0325901: 1 μM • Forskolin (FSK): 2 μM. The culture medium was substituted by a fresh one every 3-4 days and the cells were cultured up to day 14. […] The cells were photographed at a magnification of 200 with a fluorescence microscope and the fluorescence intensity was measured.

[4] = system: human dermal fibroblasts (HDFs); assay: CIDEA gene mRNA by real time RT-PCR (Example 4); conditions: induction medium + T3 + Rosiglitazone, compounds 2 μM, day 14, FIG. 4
Description: The next day, the culture supernatant was removed by suction and, as described in the Figure, a normal medium, an adipocyte induction medium, or an adipocyte induction medium added with each compound and the like was added at 500 μL/well. […] The concentrations of the additives are as follows: • T3: 1 nM • Rosiglitazone: 1 μM • D4476: 2 μM • Pifithrin alpha [p53 inhibitor]: 5 μM • SB431542: 2 μM • ALK5 Inhibitor II: 2 μM. The culture medium was substituted by a fresh one every 3 4 days and the cells were cultured up to day 14.

[5] = system: human dermal fibroblasts (HDFs); assay: AdipoQ gene mRNA by real time RT-PCR (Example 6); conditions: induction medium + T3 + Rosiglitazone, D4476, SB431542, ALK5 Inhibitor II 2 μM, PD0325901 1 μM, day 14, FIG. 6
Description: This was seeded in a 24-well plate at a concentration of 1×10^4 cells/well (day 0), and culturing was started at 5% CO2/95% humid air, 37° C. The next day, the culture supernatant was removed by suction and, as described in the Figure, a normal medium, an adipocyte induction medium, or an adipocyte induction medium added with each low-molecular-weight compound and the like was added at 500 μL/well. […] The concentrations of the additives are as follows: • T3: 1 nM • Rosiglitazone: 1 μM • D4476: 2 μM. • Pifithrin alpha [p53 inhibitor]: 5 μM • PD0325901: 1 μM • SB431542: 2 μM • ALK5 Inhibitor II: 2 μM. The culture medium was substituted by a fresh one every 3-4 days and the cells were cultured up to day 14.

[6] = system: human dermal fibroblasts (HDFs); assay: Oil Red O staining of fibroblasts cultured with compounds (Example 1); conditions: adipocyte induction medium with T3 1 nM and Rosiglitazone 1 μM, D4476 2 μM, SB431542 2 μM, ALK5 Inhibitor II 2 M, Pifithrin alpha 5 μM, day 14, FIG. 1
Description: The next day, the culture supernatant was removed by suction and, as described in the Figure, a normal medium, an adipocyte induction medium, or an adipocyte induction medium added with the compound and the like was added at 500 μL/well.
The adipocyte induction medium is a 10% FBS-added DMEM+MDI medium (10% FBS-added DMEM supplemented with 0.5 mM isobutylmethylxanthine (IBMX), 0.5 μM dexamethason and 1 μg/mL Insulin).
The concentrations of the additives are as follows: • T3: 1 nM • Rosiglitazone: 1 μM • D4476: 2 μM • Pifithrin alpha [p53 inhibitor]: 5 μM • SB431542: 2 μM • ALK5 Inhibitor II: […].
The culture medium was substituted by a fresh one every 3-4 days and the cells were cultured up to day 14.
After washing 3 times with sterile distilled water, Oil Red O staining solution was added, and the mixture was incubated at room temperature for 15 min. Then, the cells were washed with sterile distilled water and photographed at a magnification of 100 with a phase contrast microscope.

[7] = system: human dermal fibroblasts (HDFs); assay: BODIPY staining of lipid droplets (Example 7); conditions: induction medium + T3 + Rosiglitazone, compounds 2 μM, day 14, FIG. 7A, 7B
Description: as §1, with “each low-molecular-weight” for “each”, “II:” for “II: 2 μM • PD0325901: 1 μM • Forskolin (FSK):”

| Compound | UCP1 protein expression by immunostaining (induction into brown adipocytes) [1] | strength of induction of UCP1 expression (order) ([1]; immunostaining day 14, FIG. 16) | induction efficiency into brown adipocytes (order) [2] | UCP1 gene expression (conversion to brown adipocytes) [2] | UCP1 protein expression by immunostaining (conversion to brown adipocytes) [3] | mRNA expression of CIDEA gene (conversion to brown adipocytes) [4] | mRNA expression of AdipoQ gene (conversion to brown adipocytes) [5] | Oil Red O staining [6] | lipid droplets stained with BODIPY (conversion to brown adipocytes) [7] |
| --- | --- | --- | --- | --- | --- | --- | --- | --- | --- |
| Cc1cccc(-c2n[nH]cc2-c2ccc3ncccc3n2)n1 [ALK5 Inhibitor II, 2-(3-(6-Methylpyridin-2-yl)-1H-pyrazol-4-yl)-1,5-naphthyridine] | induced into brown adipocytes expressing UCP1 protein | most strongly induced | most strongly induced into brown adipocytes | converted to brown adipocytes strongly expressing UCP1 gene | converted to brown adipocytes expressing UCP1 protein | converted to brown adipocytes expressing mRNA of CIDEA gene | converted to brown adipocytes expressing mRNA of AdipoQ gene | Remarkable Oil Red O staining | converted to brown adipocytes having lipid droplets stained with BODIPY |
| NC(=O)c1ccc(-c2nc(-c3ccc4c(c3)OCCO4)c(-c3ccccn3)[nH]2)cc1 [D4476, 4-[4-(2,3-dihydro-1,4-benzodioxin-6-yl)-5-(2-pyridlnyl-)1H-imidazol-2-yl]-benzamide] | induced into brown adipocytes expressing UCP1 protein |  | ALK5 inhibitor II>LY2157299>SB431541>D4476 | converted to brown adipocytes strongly expressing UCP1 gene | converted to brown adipocytes expressing UCP1 protein | converted to brown adipocytes expressing mRNA of CIDEA gene | converted to brown adipocytes expressing mRNA of AdipoQ gene | Remarkable Oil Red O staining | converted to brown adipocytes having lipid droplets stained with BODIPY |
